Experimental data: ChEMBL document CHEMBL1201862, “PubChem BioAssay data set” (2004)
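Compound exposure: 48 hours, 5 concentrations, 96-well plates. GI50 = concentration required for 50% inhibition of growth.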 The source made the active and inactive calls. No stated cut-off is given here; in the data, active = GI50 up to about 1.1 µM and inactive = higher.

How the values were obtained:
Test in all cases: NCI-60 cell line screen, 48 h
786-0 = test system: 786-0
A498 = test system: A498
A549 = test system: A549
ACHN = test system: ACHN
BT-549 = test system: BT-549
CAKI-1 = test system: CAKI-1
CCRF-CEM = test system: CCRF-CEM
COLO 205 = test system: COLO 205
DU-145 = test system: DU-145
EKVX = test system: EKVX
HCT-116 = test system: HCT-116
HCT-15 = test system: HCT-15
HL-60 = test system: HL-60
HOP-62 = test system: HOP-62
HOP-92 = test system: HOP-92
HT-29 = test system: HT-29
Hs-578T = test system: Hs-578T
IGROV-1 = test system: IGROV-1
K562 = test system: K562
KM12 = test system: KM12
LOX IMVI = test system: LOX IMVI
M14 = test system: M14
MCF7 = test system: MCF7
MDA-MB-435 = test system: MDA-MB-435
MDA-N = test system: MDA-N
MOLT-4 = test system: MOLT-4
Malme-3M = test system: Malme-3M
NCI-H226 = test system: NCI-H226
NCI-H23 = test system: NCI-H23
NCI-H460 = test system: NCI-H460
NCI-H522 = test system: NCI-H522
NCI/ADR-RES = test system: NCI/ADR-RES
OVCAR-3 = test system: OVCAR-3
OVCAR-4 = test system: OVCAR-4
OVCAR-5 = test system: OVCAR-5
OVCAR-8 = test system: OVCAR-8
PC-3 = test system: PC-3
RPMI-8226 = test system: RPMI-8226
RXF 393 = test system: RXF 393
SF-268 = test system: SF-268
SF-295 = test system: SF-295
SF-539 = test system: SF-539
SK-MEL-2 = test system: SK-MEL-2
SK-MEL-5 = test system: SK-MEL-5
SK-OV-3 = test system: SK-OV-3
SN12C = test system: SN12C
SNB-19 = test system: SNB-19
SNB-75 = test system: SNB-75
SR = test system: SR
SW-620 = test system: SW-620
T47D = test system: T47D
TK-10 = test system: TK-10
U-251 = test system: U-251
UACC-257 = test system: UACC-257
UACC-62 = test system: UACC-62
UO-31 = test system: UO-31
HCC 2998 = test system: HCC 2998
MDA-MB-231 = test system: MDA-MB-231
SK-MEL-28 = test system: SK-MEL-28

CC(C)(C)OC(=O)N1C(c2cccnc2)=CC[C@H]2C3CC=C(c4cccnc4)[C@@]3(C)CC[C@@H]21 (stereo partly drawn)
GI50 (786-0): 4.86 µM (inactive) | GI50 (A498): 5.81 µM (inactive) | GI50 (A549): 3.37 µM (inactive) | GI50 (ACHN): 3.46 µM (inactive) | GI50 (BT-549): 4.53 µM (inactive) | GI50 (CAKI-1): 6.55 µM (inactive) | GI50 (CCRF-CEM): 3.99 µM (inactive) | GI50 (COLO 205): 1.74 µM (inactive) | GI50 (DU-145): 4.76 µM (inactive) | GI50 (EKVX): 2.11 µM (inactive) | GI50 (HCT-116): 4.04 µM (inactive) | GI50 (HCT-15): 3.52 µM | GI50 (HL-60): 1.97 µM (inactive) | GI50 (HOP-62): 2.79 µM (inactive) | GI50 (HOP-92): 2.52 µM (inactive) | GI50 (HT-29): 3.53 µM (inactive) | GI50 (Hs-578T): 5.64 µM (inactive) | GI50 (IGROV-1): 4.16 µM (inactive) | GI50 (K562): 0.52 µM (active) | GI50 (KM12): 4.06 µM (inactive) | GI50 (LOX IMVI): 2.71 µM (inactive) | GI50 (M14): 4.75 µM (inactive) | GI50 (MCF7): 2.81 µM (inactive) | GI50 (MDA-MB-435): 2.13 µM (inactive) | GI50 (MDA-N): 3.05 µM (inactive) | GI50 (MOLT-4): 2.54 µM (inactive) | GI50 (Malme-3M): 3.44 µM (inactive) | GI50 (NCI-H226): 3.56 µM (inactive) | GI50 (NCI-H23): 3.4 µM (inactive) | GI50 (NCI-H460): 3.51 µM (inactive) | GI50 (NCI-H522): 2.92 µM (inactive) | GI50 (NCI/ADR-RES): 8.45 µM (inactive) | GI50 (OVCAR-3): 3.44 µM (inactive) | GI50 (OVCAR-4): 5.09 µM (inactive) | GI50 (OVCAR-5): 11.9 µM (inactive) | GI50 (OVCAR-8): 4.02 µM (inactive) | GI50 (PC-3): 4.6 µM (inactive) | GI50 (RPMI-8226): 1.82 µM (inactive) | GI50 (RXF 393): 3.32 µM (inactive) | GI50 (SF-268): 2.9 µM (inactive) | GI50 (SF-295): 3.13 µM (inactive) | GI50 (SF-539): 3.82 µM (inactive) | GI50 (SK-MEL-2): 2.95 µM (inactive) | GI50 (SK-MEL-5): 2.07 µM (inactive) | GI50 (SK-OV-3): 4.54 µM (inactive) | GI50 (SN12C): 3.67 µM (inactive) | GI50 (SNB-19): 4.83 µM (inactive) | GI50 (SNB-75): 5.6 µM (inactive) | GI50 (SR): 3.28 µM (inactive) | GI50 (SW-620): 3.83 µM (inactive) | GI50 (T47D): 4.16 µM (inactive) | GI50 (TK-10): 4.22 µM (inactive) | GI50 (U-251): 3.36 µM (inactive) | GI50 (UACC-257): 3.23 µM (inactive) | GI50 (UACC-62): 2.61 µM (inactive) | GI50 (UO-31): 4.95 µM (inactive)

CN(C)C(=O)C(NCCO)c1ccccc1 (stereo not drawn)
GI50 (786-0): > 100 µM (inactive) | GI50 (A498): > 100 µM (inactive) | GI50 (A549): > 100 µM (inactive) | GI50 (ACHN): > 100 µM (inactive) | GI50 (BT-549): > 100 µM (inactive) | GI50 (CAKI-1): > 100 µM (inactive) | GI50 (COLO 205): > 100 µM (inactive) | GI50 (DU-145): > 100 µM (inactive) | GI50 (EKVX): > 100 µM (inactive) | GI50 (HCC 2998): > 100 µM (inactive) | GI50 (HCT-116): 53.7 µM (inactive) | GI50 (HCT-15): > 100 µM | GI50 (HOP-62): > 100 µM (inactive) | GI50 (HOP-92): > 100 µM (inactive) | GI50 (HT-29): 57.7 µM (inactive) | GI50 (Hs-578T): > 100 µM (inactive) | GI50 (IGROV-1): 72.6 µM (inactive) | GI50 (KM12): 85.7 µM (inactive) | GI50 (LOX IMVI): > 100 µM (inactive) | GI50 (M14): > 100 µM (inactive) | GI50 (MCF7): > 100 µM (inactive) | GI50 (MDA-MB-231): > 100 µM (inactive) | GI50 (MDA-MB-435): 79.4 µM (inactive) | GI50 (MDA-N): > 100 µM (inactive) | GI50 (MOLT-4): 22.4 µM (inactive) | GI50 (NCI-H226): > 100 µM (inactive) | GI50 (NCI-H23): 83 µM (inactive) | GI50 (NCI-H460): > 100 µM (inactive) | GI50 (NCI-H522): > 100 µM (inactive) | GI50 (OVCAR-3): 62.1 µM (inactive) | GI50 (OVCAR-4): > 100 µM (inactive) | GI50 (OVCAR-5): > 100 µM (inactive) | GI50 (OVCAR-8): > 100 µM (inactive) | GI50 (PC-3): 89.1 µM (inactive) | GI50 (RPMI-8226): 27.9 µM (inactive) | GI50 (RXF 393): > 100 µM (inactive) | GI50 (SF-268): > 100 µM (inactive) | GI50 (SF-295): > 100 µM (inactive) | GI50 (SF-539): > 100 µM (inactive) | GI50 (SK-MEL-28): > 100 µM (inactive) | GI50 (SK-MEL-2): > 100 µM (inactive) | GI50 (SK-MEL-5): 52.8 µM (inactive) | GI50 (SK-OV-3): > 100 µM (inactive) | GI50 (SN12C): > 100 µM (inactive) | GI50 (SNB-19): > 100 µM (inactive) | GI50 (SNB-75): > 100 µM (inactive) | GI50 (SW-620): > 100 µM (inactive) | GI50 (T47D): 53.3 µM (inactive) | GI50 (TK-10): > 100 µM (inactive) | GI50 (U-251): 90.6 µM (inactive) | GI50 (UACC-257): 48.3 µM (inactive) | GI50 (UACC-62): 61.2 µM (inactive) | GI50 (UO-31): > 100 µM (inactive)

COCn1cnc2c(=O)nc(SC)n(-c3ccccc3)c21
GI50 (786-0): > 100 µM (inactive) | GI50 (A498): > 100 µM (inactive) | GI50 (A549): > 100 µM (inactive) | GI50 (ACHN): > 100 µM (inactive) | GI50 (BT-549): > 100 µM (inactive) | GI50 (CAKI-1): > 100 µM (inactive) | GI50 (CCRF-CEM): > 100 µM (inactive) | GI50 (COLO 205): > 100 µM (inactive) | GI50 (DU-145): > 100 µM (inactive) | GI50 (EKVX): > 100 µM (inactive) | GI50 (HCC 2998): > 100 µM (inactive) | GI50 (HCT-116): > 100 µM (inactive) | GI50 (HCT-15): > 100 µM | GI50 (HL-60): > 100 µM (inactive) | GI50 (HOP-62): > 100 µM (inactive) | GI50 (HOP-92): > 100 µM (inactive) | GI50 (HT-29): > 100 µM (inactive) | GI50 (Hs-578T): > 100 µM (inactive) | GI50 (IGROV-1): > 100 µM (inactive) | GI50 (K562): > 100 µM (inactive) | GI50 (KM12): > 100 µM (inactive) | GI50 (LOX IMVI): > 100 µM (inactive) | GI50 (M14): > 100 µM (inactive) | GI50 (MCF7): > 100 µM (inactive) | GI50 (MDA-MB-231): > 100 µM (inactive) | GI50 (MDA-MB-435): > 100 µM (inactive) | GI50 (MDA-N): > 100 µM (inactive) | GI50 (MOLT-4): > 100 µM (inactive) | GI50 (Malme-3M): > 100 µM (inactive) | GI50 (NCI-H226): > 100 µM (inactive) | GI50 (NCI-H23): > 100 µM (inactive) | GI50 (NCI-H522): > 100 µM (inactive) | GI50 (NCI/ADR-RES): > 100 µM (inactive) | GI50 (OVCAR-3): > 100 µM (inactive) | GI50 (OVCAR-4): > 100 µM (inactive) | GI50 (OVCAR-5): > 100 µM (inactive) | GI50 (OVCAR-8): > 100 µM (inactive) | GI50 (RPMI-8226): > 100 µM (inactive) | GI50 (RXF 393): > 100 µM (inactive) | GI50 (SF-268): > 100 µM (inactive) | GI50 (SF-295): > 100 µM (inactive) | GI50 (SF-539): > 100 µM (inactive) | GI50 (SK-MEL-2): > 100 µM (inactive) | GI50 (SK-MEL-5): > 100 µM (inactive) | GI50 (SK-OV-3): > 100 µM (inactive) | GI50 (SN12C): > 100 µM (inactive) | GI50 (SNB-19): > 100 µM (inactive) | GI50 (SNB-75): > 100 µM (inactive) | GI50 (SW-620): > 100 µM (inactive) | GI50 (T47D): > 100 µM (inactive) | GI50 (TK-10): > 100 µM (inactive) | GI50 (UACC-257): > 100 µM (inactive) | GI50 (UACC-62): > 100 µM (inactive) | GI50 (UO-31): > 100 µM (inactive)
